Reference: US9526720B2, “Modulators of hepatic lipoprotein metabolism” (The Broad Institute, Inc., priority 2012, dated 2016)
Like-named read-outs stand apart in the source and are kept apart here.

Tests used:
HMGCS = assay: qPCR HMGCS transcript level in HepG2 cells; assay type: cell-based; details: Homo sapiens, 20 h
Procedure: (§1) In the primary screen, HepG2 cells were plated in 384-well plates at 2000 cells per well and incubated for 20 hours with each compound in duplicate at 10 microM concentration. Then RNA was isolated, reverse-transcribed to cDNA, and stored at −80° C. Expression levels of TRIB1 and other target genes, such as SORT1 and PCSK9, were determined by quantitative PCR. Relative gene expression level was normalized to expression of the housekeeping gene, GAPDH. A “hit” was defined as those compounds that caused a greater than 2-fold increase in relative target gene expression when normalized to GAPDH expression, compared to DMSO-treated control. Using these criteria, 130 hits were identified for TRIB1 (0.8% hit rate).
(§2) Further analysis of the expression levels of various proteins in the cholesterol and triglyceride biosynthetic pathways in response to TRIB1 inducer treatment was performed. In particular, transcript levels of additional lipoprotein metabolism pathway proteins SCAP, SREBF1, SREBF2, HMGCR, HMGCS, SCD1, FASN and MTTP were assessed by qPCR, along with TRIB1, LDLR, and PCSK9. The gene expression profile for the same subset of genes was also assessed after treatment with the statin atorvastatin (Lipitor), commonly used in therapy for hypercholesterolemia and other cardiovascular diseases.

TRIB1 [1] = assay: qPCR TRIB1 expression in HepG2 cells; assay type: cell-based, human; parameters: key to qPCR TRIB1: A: Increase <2-fold; B: Increase >2-fold; X: Decrease <2-fold; Y: Decrease >2-fold; No significant change; details: for fold induction at 10 µM: Homo sapiens, 20 h
Procedure: as §1, §2
(§3) The kinetics of the modulation of TRIB1, LDLR, PCSK9 and MTTP gene expression after treatment by select TRIB1 inducer compounds was monitored by qPCR analysis (FIG. 4). RNA was extracted from cells at various timepoints over 28 hours of treatment (0, 2, 4, 6, 8, 24, 28 hours). Specifically, compounds 12a and 14a induced transcriptional responses over time similar to those produced by berberine, a plant alkaloid used in Chinese medicine. […] Both compound 12a and compound 14a induce TRIB1 and LDLR and repress PCSK9 and MTTP expression with similar kinetics and similar fold change as berberine Importantly, both compounds induce these gene expression changes at much lower concentrations than berberine. […] This increased potency indicates the potential therapeutic efficacy of such compounds for treatment of cardiovascular diseases, particularly hypercholesterolemia and related conditions.

PCSK9 [2] = assay: qPCR PCSK9 expression in HepG2 cells; assay type: cell-based, human; details: for fold induction at 10 µM: Homo sapiens, 20 h, HepG2 cells
Procedure: as §1, §2, §3

FASN = assay: qPCR FASN transcript level in HepG2 cells; assay type: cell-based; details: Homo sapiens, 20 h
Procedure: as §1, §2

SREBF1 = assay: qPCR SREBF1 transcript level in HepG2 cells; assay type: cell-based, human; parameters: key: A: Increase <2-fold; B: Increase >2-fold; X: Decrease <2-fold; Y: Decrease >2-fold; No significant change
Procedure: as §1, §2

SCD1 = assay: qPCR SCD1 transcript level in HepG2 cells; assay type: cell-based; details: Homo sapiens, 20 h
Procedure: as §1, §2

LDLR [3] = assay: ELISA of LDLR protein in HepG2 cells; assay type: cell-based, human; details: for ELISA LDLR: HepG2 cells
Procedure: (§4) Additional secondary assays were performed in HepG2 cells to further characterize the cellular response to treatment with select confirmed TRIB1 inducer hits. The results of the ELISA, CTG, and qPCR secondary assays are summarized in Table B. For all secondary assays, the experiments were performed using powders of freshly purified compounds.
(§5) To further characterize the relationship of TRIB1 induction and PCSK9 reduction, ELISAs were performed to measure the levels of secreted ApoB, PCSK9, and LDLR. […] As predicted treatment with TRIB1 inducer hits caused a decrease in ApoB levels detected by ELISA. In parallel effort, 3200 BIOA and NATP compounds were screened for PCSK9 expression inhibitors. Hits were defined as inducing greater than 3-fold downregulation of PCSK9, and 3.8% of the screened compounds were confirmed as hits. […] In further experiments, a strong correlation was confirmed between TRIB1 induction and PCSK9 repression in DOS Collection hits. ELISA analysis confirmed that treatment with TRIB1 inducers reduced the PCSK9 protein levels. LDLR protein levels were also analyzed by ELISA to determine whether compounds that modulate both TRIB1 and PCSK9 had any effect on LDLR protein levels.

ApoB = assay: ELISA of secreted ApoB in HepG2 cells; assay type: cell-based, human; details: HepG2 cells
Procedure: as §4, §5

SCAP = assay: qPCR SCAP transcript level in HepG2 cells; assay type: cell-based, human; parameters: key: A: Increase <2-fold; B: Increase >2-fold; X: Decrease <2-fold; Y: Decrease >2-fold; No significant change
Procedure: as §1, §2

PCSK9 [4] = assay: ELISA of secreted PCSK9 protein in HepG2 cells; assay type: cell-based, human; details: HepG2 cells
Procedure: as §4, §5

HMGCR = assay: qPCR HMGCR transcript level in HepG2 cells; assay type: cell-based, human; parameters: key: A: Increase <2-fold; B: Increase >2-fold; X: Decrease <2-fold; Y: Decrease >2-fold; No significant change
Procedure: as §1, §2

HepG2 cells = assay: Cell Titer Glo (CTG) cell viability assay; assay type: cell-based, human; parameters: key: A: Increase <2-fold; B: Increase >2-fold; X: Decrease <2-fold; Y: Decrease >2-fold; No significant change; details: cell viability (ATP)
Procedure: Cell viability was determined using a Cell Titer Glo (CTG) assay ([…]) after treatment with TRIB1 inducer compounds. In this assay, the number of viable cells in culture is based on quantitation of ATP, which indicates metabolically active cells. Addition of the reagent results in cell lysis and generation of a luminescent signal proportional to the amount of ATP present, which is directly proportional to the number of viable, metabolically active cells present in culture. Most TRIB1 inducer compounds had no significant effect on cell viability.

LDLR [5] = assay: qPCR LDLR expression in HepG2 cells; assay type: cell-based, human; details: for qPCR LDLR: HepG2 cells
Procedure: as §1, §2, §3

SREBF2 = assay: qPCR SREBF2 transcript level in HepG2 cells; assay type: cell-based, human; parameters: key: A: Increase <2-fold; B: Increase >2-fold; X: Decrease <2-fold; Y: Decrease >2-fold; No significant change
Procedure: as §1, §2

TRIB1 [6] = assay: qPCR TRIB1 expression in HepG2 cells; assay type: cell-based; details: Homo sapiens
[7] = HepG2, induction of TRIB1 and LDLR transcript levels, read-out: half maximal effective concentration (EC50)

Structure (SMILES)	fold induction at 10 µM (HMGCS)	fold induction at 10 µM (PCSK9 [2])	fold induction at 10 µM (FASN)	qPCR SREBF1 (SREBF1)	fold induction at 10 µM (SCD1)	ELISA LDLR (LDLR [3])	ELISA ApoB (ApoB)	qPCR SCAP (SCAP)	ELISA PCSK9 (PCSK9 [4])	qPCR HMGCR (HMGCR)	CTG (HepG2 cells)	qPCR LDLR (LDLR [5])	qPCR SREBF2 (SREBF2)	fold induction at 10 µM (TRIB1 [1]; HepG2 cells)	EC50 (TRIB1 [6]; [7]) [µM]	other results
CC(C)c1c(C(=O)Nc2ccccc2)c(-c2ccccc2)c(-c2ccc(F)cc2)n1CC[C@@H](O)C[C@@H](O)CC(=O)O [Atorvastatin, atorvastatin, reference compound]	< 2	> 2	< 2	N	< 2	A (Increase <2-fold)	X (Decrease <2-fold)	N	A (Increase <2-fold)	N	N	B (Increase >2-fold)	A (Increase <2-fold)	–	–	TRIB1 expression (in words) (TRIB1 [1]; HepG2, qPCR): did not significantly affect; qPCR TRIB1 (TRIB1 [1]; HepG2 cells): N; increase of PCSK9 mRNA levels (PCSK9 [2]; time course, HepG2): ~2 fold; increase of LDLR mRNA levels (LDLR [5]; time course, HepG2): ~2 fold
Cc1cc(C(=O)Nc2ccc3c(c2)C(=O)N(C)[C@H]2CC[C@@H](CC(=O)NCc4ccc(-c5ccccc5)cc4)O[C@@H]2CO3)no1 [Compound 3a]	> 2	> 2	> 2	N	> 2	B (Increase >2-fold)	Y (Decrease >2-fold)	N	X (Decrease <2-fold)	Y (Decrease >2-fold)	N	B (Increase >2-fold)	B (Increase >2-fold)	> 2	–	–
CN1C(=O)c2cc(NC(=O)Cc3cccs3)ccc2OC[C@@H]2O[C@H](CC(=O)NCc3ccc(-c4ccccc4)cc3)CC[C@@H]21 [Compound 4a]	> 2	> 2	> 2	X (Decrease <2-fold)	< 2	A (Increase <2-fold)	Y (Decrease >2-fold)	X (Decrease <2-fold)	X (Decrease <2-fold)	X (Decrease <2-fold)	N	A (Increase <2-fold)	X (Decrease <2-fold)	> 2	–	–
O=C(C[C@@H]1CC[C@H]2[C@@H](COC[C@H](O)CN2Cc2ccc(Oc3ccccc3)cc2)O1)N1CCc2ccccc2C1 [Compound 6a]	> 2	> 2	> 2	N	> 2	A (Increase <2-fold)	Y (Decrease >2-fold)	N	Y (Decrease >2-fold)	N	N	A (Increase <2-fold)	N	> 2	–	–
CN1C(=O)c2cc(NC(=O)Nc3ccccc3F)ccc2OC[C@@H]2O[C@H](CC(=O)NCc3ccc(-c4ccccc4)cc3)CC[C@@H]21 [Compound 15a]	–	–	–	–	–	–	–	–	–	–	–	–	–	–	< 1	–
COCC(=O)Nc1ccc2c(c1)C(=O)N(C)[C@H]1CC[C@@H](CC(=O)NC3Cc4ccccc4C3)O[C@H]1CO2 [Compound 16a]	–	–	–	–	–	–	–	–	–	–	–	–	–	–	< 1	–
CN(C)C(=O)c1ccc(-c2ccc([C@H]3[C@@H](C#N)N(C(=O)C4CCCCC4)[C@H]3CO)cc2)cc1 [Compound 17a]	–	–	–	–	–	–	–	–	–	–	–	–	–	–	< 1	EC50 (LDLR [3]; Homo sapiens, HepG2, 24 h, read-out: ELISA 24 Hr (EC50 uM) LDLR increase): 1.1 to 2 µM; EC50 (LDLR [5]; Homo sapiens, HepG2, 6 h, read-out: qPCR 6Hr (EC50 uM) LDLR up-regulation): 0.51 to 1 µM; EC50 (TRIB1 [6]; HepG2, 6 h, read-out: qPCR 6Hr (EC50 uM) TRIB1 up-regulation): 0.51 to 1 µM
